From patent US7863271B2, “2-aminobenzoxazole carboxamides as 5HT3 modulators” (Albany Molecular Research, Inc., priority 2006, dated 2011)
Structures can show the parent of a compound that is named as a salt.

How the values were obtained:
5-HT3 receptors = biological target: T1, 5-HT3 receptors (Mus musculus, UniProt P23979); assay: Bezold-Jarisch assay in vivo: inhibition of serotonin induced bradycardia; conditions: read-out: % Inhibition @ dose of test substance (p.o.); for inhibition at 3 mg/kg: 3 mg/kg p.o.; for inhibition at 3 mg/kg / inhibition at 1 mg/kg: 5-HT (0.1 mg/kg IV)-induced bradycardia 60 min later; for inhibition at 1 mg/kg: 1 mg/kg p.o.
T1 construct: from tissue; host or cells: whole animal: male or female CD-1(Crl.) mice
T1 sequence (P23979 24-489): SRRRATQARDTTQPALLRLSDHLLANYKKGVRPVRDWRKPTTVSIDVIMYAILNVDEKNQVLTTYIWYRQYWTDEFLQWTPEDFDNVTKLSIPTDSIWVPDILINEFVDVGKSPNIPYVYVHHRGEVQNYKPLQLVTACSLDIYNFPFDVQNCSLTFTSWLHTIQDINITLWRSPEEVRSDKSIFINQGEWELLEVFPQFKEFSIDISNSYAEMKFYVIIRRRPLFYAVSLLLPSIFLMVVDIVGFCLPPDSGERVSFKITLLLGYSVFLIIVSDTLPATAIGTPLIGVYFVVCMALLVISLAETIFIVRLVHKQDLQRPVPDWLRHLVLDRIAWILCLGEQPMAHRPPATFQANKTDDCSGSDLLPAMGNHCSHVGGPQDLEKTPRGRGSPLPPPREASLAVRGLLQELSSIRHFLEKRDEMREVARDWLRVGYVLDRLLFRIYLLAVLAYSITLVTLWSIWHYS
Description: Bezold-Jarisch Assay in vivo. […] Arch. Int. Pharmacodyn. 277: 235-252, 1985]. Test substances and vehicle [2% Tween 80] were each administered orally (0.3 to 3 mg/kg) to a group of 5 male or female CD-1(Crl.) mice each weighing 24±2 g. A dosing volume of 10 mL/kg was used. Sixty minutes later, 5-HT (0.1 mg/kg IV)-induced bradycardia was recorded in urethane (2225-2500 mg/kg IP, given 10 minutes before 5-HT)-anesthetized animals.
In vivo 5-HT3 Antagonism in the mouse (Bradycardia Reflex)

5-HT3 [1] = biological target: T2, 5-HT3 (Homo sapiens, UniProt P46098); assay: Compound affinity for the human 5-HT3 receptor (Assay B), SPA radioligand binding with [9-methyl-3H]BRL-43694; parameters: purchased Perkin Elmer
T2 sequence (P46098 24-478): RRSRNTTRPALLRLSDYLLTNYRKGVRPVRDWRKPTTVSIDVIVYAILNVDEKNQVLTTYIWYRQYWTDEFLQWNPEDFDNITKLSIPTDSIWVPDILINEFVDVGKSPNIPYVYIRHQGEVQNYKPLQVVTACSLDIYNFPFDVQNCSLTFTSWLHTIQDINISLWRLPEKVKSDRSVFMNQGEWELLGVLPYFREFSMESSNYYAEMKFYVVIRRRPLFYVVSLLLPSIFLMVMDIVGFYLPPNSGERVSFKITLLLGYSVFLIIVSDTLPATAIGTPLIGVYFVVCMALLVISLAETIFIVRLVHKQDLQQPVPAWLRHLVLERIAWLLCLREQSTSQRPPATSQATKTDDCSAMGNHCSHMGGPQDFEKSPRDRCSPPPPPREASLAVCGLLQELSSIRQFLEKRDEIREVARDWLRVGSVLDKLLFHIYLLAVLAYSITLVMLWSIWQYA
Summary of the method: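 Ten competitor concentrations in duplicate; specific binding (total minus nonspecific) fitted for IC50, converted to Ki by Cheng-Prusoff.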

5-HT3 [2] = biological target: T2, 5-HT3; assay: Compound affinity for the human 5-HT3 receptor (Assay A), [3H]-GR65630 radioligand binding; parameters: host or cells: N1E-155 cell lines (so in the source); conditions: annotated (A): Assay A
Description: Compound Affinity for the human 5-HT3 Receptor (Assay A)
Compounds were tested by MDS Pharma Services—Taiwan Ltd., 158 Li-The Road, Peitou, Taipei, Taiwan 112 R.O.C. In order to evaluate the relative affinity of the various compounds for the human 5-HT3 receptor, N1E-155 cell lines were developed to express the target protein. For binding, these cells were homogenized, centrifuged and washed with buffer (20 mM HEPES, 150 mM NaCl, pH 7.4) then suspended in 0.5 mL of buffer and [3H]-GR65630 added at a concentration of 3.5×10^-10 M. An initial single concentration of 10^-7 M of the test compound was then added. Incubation was carried out at room temperature for 60 minutes at 25° C. then was terminated by rapid removal of the incubation medium. Radioactivity was assessed using liquid scintillation spectrophotometry after exposure to scintillation cocktail for at least three hours. […] Ki values were then calculated from the Cheng-Prusoff equation. In all of the above binding studies the non-specific determinant was MDL-72222 (1.0 μM).

5-HT3 [3] = biological target: T2, 5-HT3; assay: 5-HT3 inhibitor screen with potency threshold (not further specified); type: binding
[4] = Assay B (method B unless otherwise annotated), read-out: 5-HT3 Ki

Question: Which results are given for `C[C@@H]1CNC[C@H](C)N1c1nc2c(C(=O)NC3CC4CCCC(C3)N4C)cccc2o1` (relative stereo) [Example 50, Endo-N-(9-Methyl-9-azabicyclo[3.3.1]nonan-3-yl)-2-((2S*,6R*)-2,6-dimethylpiperazin-1-yl)benzoxazole-4-carboxamide Hydrochloride]?
Answer: inhibition at 3 mg/kg (5-HT3 receptors): 80%; Ki (5-HT3 [1]): 13.6 nM

Question: Which inhibition at 0.3 mg/kg (5-HT3 receptors) does the source give for `CN(C)c1nc2c(C(=O)N[C@@H]3CN4CCC3CC4)cccc2o1` [Example 8, (S)—N-(quinuclidine-8-yl)-2-(dimethylamino)benzoxazole-4-carboxamide Hydrochloride] here?
Answer: 83%

Question: What about the Ki (5-HT3 [1]; [4]) of the same compound?
Answer: 18.1 nM

Question: `CSc1nc2c(C(=O)N[C@H]3C[C@H]4CCC[C@@H](C3)N4C)cccc2o1` [Example 13, Endo-N-(9-Methyl-9-azabicyclo[3.3.1]non-3-yl)-2-methylthiobenzoxazole-4-carboxamide Hydrochloride] was tested. Which Ki (5-HT3 [2]) did it give?
Answer: 4.6 nM

Question: How did the Ki (5-HT3 [2]) turn out when `CSc1nc2c(C(=O)N[C@@H]3CN4CCC3CC4)cccc2o1` [Example 14, (S)—N-(quinuclidine-8-yl)-2-(methylthio)benzoxazole-4-carboxamide Hydrochloride] was run?
Answer: 2.6 nM

Question: Which inhibition at 1 mg/kg (5-HT3 receptors) does the source give for `C[C@H]1COCCN1c1nc2c(C(=O)NC3CC4CCCC(C3)N4C)cccc2o1` (stereo partly drawn) [Example 49, Endo-N-(9-Methyl-9-azabicyclo[3.3.1]nonan-3-yl)-2-((S)-3-methylmorpholino)benzoxazole-4-carboxamide Hydrochloride] here?
Answer: 86%

Question: Which “level of potency established as the threshold for the screen” value (5-HT3 [3]) does the source give for `C[C@H]1CN(C)CCN1c1nc2c(C(=O)NC3CC4CCCC(C3)N4C)cccc2o1` (stereo partly drawn) [Example 55, Endo-N-(9-Methyl-9-azabicyclo[3.3.1]nonan-3-yl)-2-((S)-2,4-dimethylpiperazin-1-yl)benzoxazole-4-carboxamide Hydrochloride] here?
Answer: has not exhibited the level of potency established as the threshold for the screen

Question: What about the Ki (5-HT3 [1]) of the same compound?
Answer: 28.8 nM

Question: Which inhibition at 1 mg/kg (5-HT3 receptors) does the source give for `C[C@H]1COC[C@H](C)N1c1nc2c(C(=O)NC3CC4CCCC(C3)N4C)cccc2o1` (stereo partly drawn) [Example 75, Endo-N-(9-Methyl-9-azabicyclo[3.3.1]nonan-3-yl)-2-((3S,5S)-3,5-dimethylmorpholino)benzoxazole-4-carboxamide Hydrochloride] here?
Answer: 98%

Question: And the Ki (5-HT3 [1])?
Answer: 0.59 nM

Question: What does the source list for `Nc1nc2c(C(=O)NC3CN4CCC3CC4)cccc2o1` [Example 93, (S)—N-(Quinulidin-8-yl)-2-aminobenzoxazole-4-carboxamide Hydrochloride]?
Answer: inhibition at 3 mg/kg (5-HT3 receptors): 85%; Ki (5-HT3 [1]): 12.1 nM

Question: `Nc1nc2c(C(=O)NC3CN4CCC3CC4)cc(Cl)cc2o1` (stereo not shown) [Example 103, Hydrochloride] was tested. Which inhibition at 3 mg/kg (5-HT3 receptors) did it give?
Answer: 97%

Question: What about the Ki (5-HT3 [1]) of the same compound?
Answer: 5.1 nM

Question: Which inhibition at 3 mg/kg (5-HT3 receptors) does the source give for `Nc1nc2c(C(=O)NC3CN4CCC3CC4)cc(F)cc2o1` [Example 116, (S)—N-(Quinulidin-8-yl)-2-amino-6-fluorobenzoxazole-4-carboxamide Hydrochloride] here?
Answer: 97%

Question: What about the Ki (5-HT3 [1]) of the same compound?
Answer: 9.4 nM

Question: `C[C@H]1CN(C(=O)N2CCCC2)C[C@H](C)N1c1nc2c(C(=O)NC3CC4CCCC(C3)N4C)cccc2o1` (stereo partly drawn) [Example 140, Endo-N-(9-methyl-9-azabicyclo[3.3.1]nonan-3-yl)-2-((2S,6S)-2,6-dimethyl-4-(pyrrolidine-1-carbonyl)piperazin-1-yl)benzoxazole-4-carboxamide hydrochloride] was tested. Which Ki (5-HT3 [1]; [4]) did it give?
Answer: 2.2 nM

Question: `C[C@H]1CN(C(=O)N2CCCCC2)C[C@H](C)N1c1nc2c(C(=O)NC3CC4CCCC(C3)N4C)cccc2o1` (stereo partly drawn) [Example 141, Endo-N-(9-methyl-9-azabicyclo[3.3.1]nonan-3-yl)-2-((2S,6S)-2,6-dimethyl-4-(piperidine-1-carbonyl)piperazin-1-yl)benzoxazole-4-carboxamide hydrochloride] was tested. Which Ki (5-HT3 [1]; [4]) did it give?
Answer: 1.8 nM

Question: For `C[C@H]1CN(Cc2ccccc2)C(=O)[C@H](C)N1c1nc2c(C(=O)N[C@@H]3CN4CCC3CC4)cccc2o1` [Example 142, (S)—N-(quinuclidine-8-yl) 2-((2S,6S)-4-benzyl-2,6-dimethyl-3-oxopiperazine-1-yl)benzoxazole-4-carboxamide Hydrochloride], which Ki (5-HT3 [1]; [4]) is on record?
Answer: 11.5 nM

Question: With `CC(C)OC(=O)N1C[C@H](C)N(c2nc3c(C(=O)NC4CC5CCCC(C4)N5C)cccc3o2)[C@@H](C)C1` (stereo partly drawn) [Example 143, Endo-N-(9-methyl-9-azabicyclo[3.3.1]nonan-3-yl)-2-((2S,6S)-4-(isopropoxycarbonyl)-2,6-dimethylpiperazin-1-yl)benzoxazole-4-carboxamide Hydrochloride] as the compound, how does the Ki (5-HT3 [1]; [4]) read?
Answer: 1.4 nM

Question: `CCOC(=O)N1C[C@H](C)N(c2nc3c(C(=O)NC4CC5CCCC(C4)N5C)cccc3o2)[C@@H](C)C1` (stereo partly drawn) [Example 144, Endo-N-(9-methyl-9-azabicyclo[3.3.1]nonan-3-yl)-2-((2S,6S)-4-(ethoxycarbonyl)-2,6-dimethylpiperazin-1-yl)benzoxazole-4-carboxamide Hydrochloride] was tested. Which Ki (5-HT3 [1]; [4]) did it give?
Answer: 1 nM

Question: With `Cc1nc[nH]c1CNC(=O)c1cc(Cl)cc2oc(N)nc12` [Example 145, N-((4-methyl-1H-imidazol-5-yl)methyl)-2-amino-6-chlorobenzoxazole-4-carboxamide] as the compound, how does the Ki (5-HT3 [1]; [4]) read?
Answer: 127 nM

Question: With `CC1CN(C(=O)N2CCCC2)CC(C)N1c1nc2c(C(=O)NC3CC4CCCC(C3)N4)cccc2o1` [Example 146, Endo-N-(9-azabicyclo[3.3.1]nonan-3-yl)-2-((2S,6S)-2,6-dimethyl-4-(pyrrolidine-1-carbonyl)piperazin-1-yl)benzoxazole-4-carboxamide hydrochloride] as the compound, how does the Ki (5-HT3 [1]; [4]) read?
Answer: 32.2 nM

Question: `C[C@H]1CN(Cc2ccccc2)C[C@H](C)N1c1nc2c(C(=O)NC3CC4CCCC(C3)N4C)cccc2o1` (stereo partly drawn) [Example 148, Endo-N-(9-methyl-9-azabicyclo[3.3.1]nonan-3-yl)-2-((2S,6S)-4-benzyl-2,6-dimethylpiperazin-1-yl)benzoxazole-4-carboxamide Hydrochloride] was tested. Which Ki (5-HT3 [1]; [4]) did it give?
Answer: 1.6 nM

Question: `CC[C@@H]1COCCN1c1nc2c(C(=O)NC3CC4CCCC(C3)N4C)cccc2o1` (stereo partly drawn) [Example 151, Endo-N-(9-Methyl-9-azabicyclo[3.3.1]nonan-3-yl)-2-((R)-3-ethylmorpholino)-benzoxazole-4-carboxamide Hydrochloride] was tested. Which Ki (5-HT3 [1]; [4]) did it give?
Answer: 34 nM

Question: `CC(C)[C@@H]1COCCN1c1nc2c(C(=O)NC3CC4CCCC(C3)N4C)cccc2o1` (stereo partly drawn) [Example 152, Endo-N-(9-Methyl-9-azabicyclo[3.3.1]nonan-3-yl)-2-((R)-3-isopropylmorpholino)benzoxazole-4-carboxamide Hydrochloride] was tested. Which Ki (5-HT3 [1]; [4]) did it give?
Answer: 75 nM

Question: How did the Ki (5-HT3 [1]; [4]) turn out when “Endo-N-(9-Methyl-9-azabicyclo[3.3.1]nonan-3-yl)-2-((3aS,6aS)-hexahydropyrrolo[3,4-b]pyrrol-5(1H)-yl)benzoxazole-4-carboxamide Hydrochloride [Example 46]” was run?
Answer: 284 nM
